In BindingDB's records for doi:10.1021/jm00098a008 (University of Minnesota, 1992) one finds IC50 data, which are given here for two compounds.

For this experiment, the target named is Alcohol dehydrogenase 1 (Saccharomyces cerevisiae) (UniProt P00330). The experiment is described as follows: Inhibitory activity against yeast alcohol dehydrogenase.
Alcohol dehydrogenase 1 (Saccharomyces cerevisiae), sequence (P00330 whole entry, looked up): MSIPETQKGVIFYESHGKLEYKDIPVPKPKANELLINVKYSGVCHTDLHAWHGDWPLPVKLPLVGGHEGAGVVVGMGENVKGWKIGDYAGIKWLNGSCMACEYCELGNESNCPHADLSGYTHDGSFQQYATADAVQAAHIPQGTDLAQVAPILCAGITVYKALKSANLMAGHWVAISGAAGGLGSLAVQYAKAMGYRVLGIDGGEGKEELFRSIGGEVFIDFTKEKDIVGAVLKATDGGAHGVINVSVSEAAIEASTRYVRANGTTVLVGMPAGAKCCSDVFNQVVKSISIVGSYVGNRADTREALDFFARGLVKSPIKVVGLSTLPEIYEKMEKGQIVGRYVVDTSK

`N#CN(OC(=O)c1ccccc1)C(=O)c1ccccc1`: the IC50 was 25 µM.
Compound `CC(=O)ON(C(C)=O)S(=O)(=O)c1ccc(Cl)cc1` showed an IC50 of 39 µM.

In general, IC50 refers to the concentration at which inhibition is half-maximal. Low readings indicate higher potency, high ones lower potency.
